Test results taken from patent US4870187A, “Antihypercholesterolemic tetrazol-1-yl compounds” (Bristol-Myers Company, priority 1988, dated 1989).
Counter-ions that a name gives are not always drawn.

Columns and labels:
[1] = molecular target: T1, rat liver HMG-CoA reductase (Rattus norvegicus, UniProt P51639); assay: Test A: In Vitro Inhibition of Microsomal HMG-CoA Reductase; type: biochemical; conditions: rat liver microsomes; 0.33 mM d,1-[3-14C]-HMG-CoA, 3.0 mM NADPH, pH 7.2
T1 construct: from tissue; host or cells: rat liver microsomes
T1 sequence (P51639 1-887): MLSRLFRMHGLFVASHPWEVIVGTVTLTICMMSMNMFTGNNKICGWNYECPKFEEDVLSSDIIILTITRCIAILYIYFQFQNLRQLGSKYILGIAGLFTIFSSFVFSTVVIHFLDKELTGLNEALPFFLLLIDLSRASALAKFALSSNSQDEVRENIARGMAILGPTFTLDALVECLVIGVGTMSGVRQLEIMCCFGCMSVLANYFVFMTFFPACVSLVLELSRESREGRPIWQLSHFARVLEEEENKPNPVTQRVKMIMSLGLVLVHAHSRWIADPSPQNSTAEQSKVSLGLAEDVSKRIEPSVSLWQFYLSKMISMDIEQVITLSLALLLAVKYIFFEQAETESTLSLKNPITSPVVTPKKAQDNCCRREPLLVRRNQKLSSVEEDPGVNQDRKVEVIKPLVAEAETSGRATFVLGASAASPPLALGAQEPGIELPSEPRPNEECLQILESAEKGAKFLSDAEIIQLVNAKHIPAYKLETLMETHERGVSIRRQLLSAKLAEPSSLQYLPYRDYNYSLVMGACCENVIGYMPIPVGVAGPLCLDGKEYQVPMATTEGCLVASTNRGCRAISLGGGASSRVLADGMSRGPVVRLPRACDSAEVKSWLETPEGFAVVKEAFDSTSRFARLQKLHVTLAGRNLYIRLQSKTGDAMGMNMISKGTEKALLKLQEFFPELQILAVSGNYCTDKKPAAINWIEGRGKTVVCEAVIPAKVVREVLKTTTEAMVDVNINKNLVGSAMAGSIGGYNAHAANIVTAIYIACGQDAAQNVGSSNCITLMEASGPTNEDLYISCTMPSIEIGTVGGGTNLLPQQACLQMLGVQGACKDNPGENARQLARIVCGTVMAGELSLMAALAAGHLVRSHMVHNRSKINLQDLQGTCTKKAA
Description: The intact, fully activated microsomal form of rat liver HMG-CoA reductase (subunit MW ca 100,000 daltons) was prepared as described by Parker, et al., Biochem. Biophys. Res. Commun., 125, 629-635 (1984), and used as the source of enzyme for assays. HMG-CoA reductase activity was determined essentially by the method of Shapiro, et al., Biochem. Biophys. Acta., 370, 369-377 (1974), with modifications as described by Ingebritsen and Gibson, Meth. Enzymol. 71, 486-497 (1981) with the exception that the internal standard ^3 H-mevalonolactone is added after termination of the assay. […]
To measure reductase inhibition, test compounds dissolved in water or dimethylsulfoxide and diluted in buffer A (50 mM imidazole-HCl, 250 mM NaCl, 1 mM EDTA, 1 mM EGTA, 5 mM DTT, 20 μM leupeptin, pH=7.2) were incubated with aliquots of microsomes (80-160 μg protein in buffer A) followed by addition of d,1-[3-^14 C]-HMG-CoA (0.33 mM, 2.0 dpm/picomole) and NADPH (3.0 mM). The 50 percent inhibitory concentration (IC50) for each compound in Table 1 was calculated from the linear regression line of the percent decrease (from control) in enzyme activity vs. log concentration of inhibitor, determined using at least 4 dilutions of each test compound assayed in duplicate.

[2] = tested on: Isolated Hepatocyte Cholesterol Biosynthesis; assay: Test B: Isolated Hepatocyte Cholesterol Biosynthesis Assay; type: cell-based, male Wistar rats; conditions: rat hepatocytes, 10 min preincubation, 60 min incubation at 37°, pH 7.35, read-out: IC50, Inhibition of Isolated Hepatocyte Cholesterol Biosynthesis
Description: Intact parenchymal hepatocytes were isolated from male Wistar rats (180-280 g) fed cholestyramine containing or normal diet, using the collagenase perfusion method essentially as described by Seglen, in Methods in Cell Biology (D. Prescott, ed.) Vol. 13, pp. 29-83, Academic Press, New York (1976). Cell preparations were used only when viability (trypan blue exclusion) exceeded 90%. Cholesterol biosynthesis was determined as the incorporation by hepatocytes of ^3 H from [^3 H]-water into total (cellular plus medium) 3β-hydroxy sterols as per Ingebritsen, et al., J. Biol. Chem., 254, 9986-9989 (1979). Hepatocyte sterols and lipids were isolated by a modification of the methods described by Kates, in Techniques in Lipidology, (M. Kates, ed.), pp. 349, 360-363, North Holland Publ. Co., Amsterdam, 1972. To isolate sterols, cells are extracted with methanol:chloroform:water (2:1:0.8), the chloroform phase is separated and extracted with benzene to remove traces of water, then dried under nitrogen. The residue is saponified at 75° C. with 0.30N NaOH in methanol:water (9:1). The alkaline mixture is then extracted three times with petroleum ether to yield the non-saponifiable lipids which include the free as well as initially esterified cholesterol. The extract is dried under nitrogen in the presence of carrier cholesterol (0.1 mg) and 10% benzene, and the residue is dissolved in acetone:ethanol (1:1). Finally, the 3β-hydroxysterols are precipitated with an excess of digitonin, the precipitate is washed in acetone, dried under nitrogen, and dissolved in toluene:methanol (1:1). The ^3 H-labelled sterols are quantified by liquid scintillation and corrected for counting efficiency. In some tests ^14 C-cholesterol was added to initial extractions as an index of recovery, which averaged 80±3%. […]

Row | IC50 [1] | SMILES | IC50 [2]
1 | 750 nM | Cc1nnnn1C(/C=C/C(O)CC(O)CC(=O)O)=C(c1ccc(F)cc1)c1ccc(F)cc1 (centres unmarked) [Example 20] | 100 nM
2 | 120 nM | O=C(O)CC(O)CC(O)/C=C/C(=C(c1ccc(F)cc1)c1ccc(F)cc1)n1cnnn1 (centres unmarked) [Example 28, 9,9-Bis(4-fluorophenyl)-3,5-dihydroxy-8-(1H-tetrazol-1-yl)-6,8-nonadienoic acid, sodium salt] | 20 nM
3 |  | CC[C@H](C)C(=O)O[C@H]1C[C@@H](C)C=C2C=C[C@H](C)[C@H](CC[C@@H]3C[C@@H](O)CC(=O)O3)[C@H]21 [Mevinolin (Lovastatin), Mevinolin, reference compound] | 46 ± 26 nM
